Laboratory results taken from US20080031982A1 (Metaproteomics, LLC, priority 2006, published 2008).

Target: MAPK1 (Homo sapiens, UniProt P27361)
Experiment: KinaseProfiler Assay

MAPK1, sequence (P27361 whole entry): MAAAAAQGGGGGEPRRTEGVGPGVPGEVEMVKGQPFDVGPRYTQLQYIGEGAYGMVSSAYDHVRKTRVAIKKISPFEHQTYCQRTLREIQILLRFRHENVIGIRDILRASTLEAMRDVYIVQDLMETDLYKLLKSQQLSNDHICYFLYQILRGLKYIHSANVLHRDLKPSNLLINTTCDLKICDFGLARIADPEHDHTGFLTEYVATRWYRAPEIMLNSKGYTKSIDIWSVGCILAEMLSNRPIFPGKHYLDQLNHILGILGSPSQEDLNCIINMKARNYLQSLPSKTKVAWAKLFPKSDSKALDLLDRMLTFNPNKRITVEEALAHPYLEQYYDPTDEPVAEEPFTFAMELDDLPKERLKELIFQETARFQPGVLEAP

**Q.** What does the source list for COc1cc(O)c(CC=C(C)C)c(O)c1C(=O)/C=C/c1ccc(O)cc1 [Xanthohumol, xanthohumol]?
**A.** Kinase activity, % of Control (5 ug/ml): 64 % of Control; Kinase activity, % of Control (25 ug/ml): 19 % of Control; Kinase activity, % of Control (50 ug/ml): 17 % of Control
